Columns and labels:
human mGluR5 = human mGluR5 (Homo sapiens, UniProt P41594); experiment: Cell-based functional Ca2+ mobilization assay (FDSS), potentiation of glutamate EC20 response, H10H cell line; conditions: HEK H10H cells; for Emax: maximum average response at a single concentration, as percent of maximal glutamate response, glutamate EC20; for EC50: positive allosteric modulation in presence of glutamate EC20, concentration in mol/L
Text: Human mGluR5a cDNA in pCMV6-XL6 mammalian expression plasmid was purchased from OriGene Technologies, Inc. (catalogue number SC326357) and subcloned into pcDNA3.1(−). Human embryonic kidney (HEK)293A cells were then transfected with human mGluR5a pcDNA3.1(−) using LipofectAmine-2000 (Invitrogen) and monoclones were selected and tested for functional response using a Ca^2+ mobilization assay. Monoclones were named for the species (“H” for human) plus the location on the plate (e.g. “10H”).
HEK cells transfected with the human mGluR5a receptor (H10H or H12H cell line) were plated at 15,000 cells/well in clear-bottomed poly-D-lysinecoated assay plates (BD Falcon) in glutamate-glutamine-free growth medium and incubated overnight at 37° C. and 5% CO2. Cell-lines used were either the H10H or H12H cell-lines expressing the human mGluR5 receptor. The following day, the growth medium was removed and the cells were washed with assay buffer containing 1× Hank's balanced salt solution (Invitrogen, Carlsbad, Calif.), 20 mM HEPES, 2.5 mM probenecid, pH 7.4 and left with 20 μL of this reagent. Following this step, the cells were loaded with calcium indicator dye, fluo-4 AM, to a final concentration of 2 μM and incubated for 40-45 min at 37° C. The dye solution was removed and replaced with assay buffer. Cell plates were held for 10-15 min at room temperature and were then loaded into the Functional Drug Screening System 6000 (FDSS 6000, Hamamatsu, Japan).
After establishment of a fluorescence baseline for about 3 seconds, the compounds of the present invention were added to the cells, and the response in cells was measured. 2.3 minutes later an EC20 concentration of the mGluR5 receptor agonist glutamate was added to the cells, and the response of the cells was measured for about 1.7 minutes. All test compounds were dissolved and diluted to a concentration of 10 mM in 100% DMSO and then serially diluted into assay buffer for a 2× stock solution in 0.6% DMSO; stock compounds were then added to the assay for a final DMSO concentration of 0.3% after the first addition to the assay well. Calcium fluorescence measures were recorded as fold over basal fluorescence; raw data was then normalized to the maximal response to glutamate.
The concentration-response curves of compounds of the present invention, obtained in the presence of EC20 of mGluR5 receptor agonist glutamate to determine positive allosteric modulation, were generated using Microsoft Excel with IDBS XLFit add-ins. The raw data file containing all time points was used as the data source in the analysis template. This was saved by the FDSS as a tab-delimited text file. Data were normalized using a static ratio function (F/F0) for each measurement of the total 350 values per well divided by each well's initial value. Data was then reduced as to peak amplitudes (Max—Initial Min) using a time range that starts approximately 1 second after the glutamate EC20 addition and continues for approximately 40 seconds. This is sufficient time to capture the peak amplitude of the cellular Calcium response. Individual amplitudes were expressed as % EMax by multiplying each amplitude by 100 and then dividing the product by the mean of the amplitudes derived from the glutamate ECMax-treated wells. pEC50 values for test compounds were generated by fitting the normalized values versus the log of the test compound concentration (in mol/L) using a 4 parameter logistic equation where none of the parameters were fixed. Each of the three values collected at each concentration of test compound were weighted evenly. Individual values falling outside the 95% prediction limits of the curve fit were automatically excluded from the fit. […] These two methods are in good agreement for curves with a clear plateau at the high concentration range. […] For consistency purposes across the range of potencies observed, all EMax values reported in this application are calculated using the maximum average response at a single concentration. […]

human mGluR5, sequence (P41594 21-1180 isoform P41594-2 limits assumed): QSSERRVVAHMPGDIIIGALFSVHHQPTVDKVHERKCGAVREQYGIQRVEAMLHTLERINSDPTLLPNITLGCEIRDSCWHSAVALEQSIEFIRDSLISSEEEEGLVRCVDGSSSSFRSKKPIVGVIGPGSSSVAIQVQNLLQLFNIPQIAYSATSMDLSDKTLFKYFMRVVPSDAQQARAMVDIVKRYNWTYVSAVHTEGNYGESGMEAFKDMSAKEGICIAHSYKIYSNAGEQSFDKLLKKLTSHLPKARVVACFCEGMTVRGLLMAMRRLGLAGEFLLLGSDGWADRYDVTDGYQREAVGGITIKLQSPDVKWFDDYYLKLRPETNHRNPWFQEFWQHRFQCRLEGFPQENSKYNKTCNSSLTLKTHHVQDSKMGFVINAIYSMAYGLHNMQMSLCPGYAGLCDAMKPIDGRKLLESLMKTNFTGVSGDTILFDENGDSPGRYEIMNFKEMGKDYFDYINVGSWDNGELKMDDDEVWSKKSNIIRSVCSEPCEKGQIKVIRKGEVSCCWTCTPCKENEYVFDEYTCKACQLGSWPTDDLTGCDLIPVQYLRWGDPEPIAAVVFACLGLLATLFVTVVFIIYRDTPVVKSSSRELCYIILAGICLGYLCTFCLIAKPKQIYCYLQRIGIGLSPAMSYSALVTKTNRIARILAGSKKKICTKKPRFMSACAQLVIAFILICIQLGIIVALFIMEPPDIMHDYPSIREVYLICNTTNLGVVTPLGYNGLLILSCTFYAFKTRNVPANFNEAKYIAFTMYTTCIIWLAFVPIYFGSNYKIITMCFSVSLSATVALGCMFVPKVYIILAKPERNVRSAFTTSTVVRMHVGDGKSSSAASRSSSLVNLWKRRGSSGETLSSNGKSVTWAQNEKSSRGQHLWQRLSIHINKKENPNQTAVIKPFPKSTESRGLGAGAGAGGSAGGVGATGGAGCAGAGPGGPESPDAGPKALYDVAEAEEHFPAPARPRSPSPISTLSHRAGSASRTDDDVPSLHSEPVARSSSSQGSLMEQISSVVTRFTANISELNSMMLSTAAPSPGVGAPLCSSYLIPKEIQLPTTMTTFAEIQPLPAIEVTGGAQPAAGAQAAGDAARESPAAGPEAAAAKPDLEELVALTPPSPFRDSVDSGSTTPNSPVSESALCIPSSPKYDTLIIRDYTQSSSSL

| SMILES | Emax (human mGluR5) [%] | EC50 (human mGluR5) [nM] | melting point [°C] |
| --- | --- | --- | --- |
| O=C1c2oc(COc3ccccc3)nc2CCN1c1ccc(F)c(F)c1 [Compound B6] | 77 | 501 | 151.7 |
| O=C1c2oc(COc3ccccc3)nc2CCN1c1cc(F)cc(F)c1 [Compound B7] | 63 | 1510 | 150.7 |
| C[C@@H](N1CCc2nc(COc3ccccc3)oc2C1=O)C(C)(C)C [Compound B35, (R)-2-phenoxymethyl-5-(1,2,2-trimethyl-propyl)-6,7-dihydro-5H-oxazolo[5,4-c]pyridin-4-one] | 54 | 977 | – |
| CC1Cc2nc(COc3ccccc3)oc2C(=O)N1c1ccc(F)cc1 (racemic) [Compound B27, (rac)-5-(4-fluoro-phenyl)-6-methyl-2-phenoxymethyl-6,7-dihydro-5H-oxazolo[5,4-c]pyridin-4-ONE] | 64 | 575 | – |
| CC1CN(c2ccc(F)cc2)C(=O)c2oc(COc3ccccc3)nc21 (stereo not shown) [Compound B28] | 79 | 646 | – |
| Cc1cc(N2CCc3nc(COc4ccccc4)oc3C2=O)ncc1F [Compound B21] | 56 | > 10000 | 125.7 |
| O=C1c2oc(COc3ccccc3)nc2CCN1c1ccccc1F [Compound B2] | 74 | 1100 | 116.1 |
| O=C1c2oc(COc3ccccc3)nc2CCN1c1c(F)cccc1F [Compound B5] | 73 | 891 | – |
| Cc1ccc(N2CCc3nc(COc4ccccc4)oc3C2=O)nc1 [Compound B15] | 61 | > 10000 | 132.4 |
| O=C1c2oc(COc3ccccc3)nc2CCN1c1ccc(F)cn1 [Compound B11] | 62 | 2140 | 131.9 |
| Cc1cncc(N2CCc3nc(COc4ccccc4)oc3C2=O)n1 [Compound B24] | 44 | > 10000 | 138.8 |
| O=C1c2oc(COc3ccccc3)nc2CCN1c1ccccn1 [Compound B8] | 32 | > 30200 | 123.3 |
| COc1nccc(N2CCc3nc(COc4ccccc4)oc3C2=O)n1 [Compound B23] | 53 | 3090 | 142 |
| CN1CCCc2nc(COc3ccccc3)oc2C1=O [Compound B39] | 25 | > 30200 | – |
| O=C1c2oc(COc3ccccc3)nc2CCN1CC1CC1 [Compound B34] | 68 | 3470 | 119.2 |
| O=C1NCCCc2nc(COc3ccccc3)oc21 [Compound B37, 2-phenoxymethyl-5,6,7,8-tetrahydro-3-oxa-1,5-diaza-azulen-4-one] | 21 | > 30200 | – |

| SMILES | Emax (human mGluR5) [%] | EC50 (human mGluR5) [nM] | melting point [°C] |
| --- | --- | --- | --- |
| Cc1ccnc(N2CCc3nc(COc4ccccc4)oc3C2=O)c1 [Compound B16] | 38 | > 10000 | > 300 |
| O=C1c2oc(COc3ccccc3)nc2CCN1Cc1ccccc1 [Compound B36] | 59 | 891 | – |
| O=C1NCCc2nc(COc3ccccc3)oc21 [Compound B29, 2-phenoxymethyl-6,7-dihydro-5H-oxazolo[5,4-c]pyridin-4-one] | 21 | > 30200 | 148.5 |
| O=C1c2oc(COc3ccccc3)nc2CCN1c1ccncc1 [Compound B10] | 49 | > 10000 | 130.9 |
| O=C1c2oc(COc3ccccc3)nc2CCN1c1ccc(F)cc1 [Compound B1, 5-(4-fluoro-phenyl)-2-phenoxymethyl-6,7-dihydro-5H-oxazolo[5,4-c]pyridin-4-one] | 83 | 447 | 135.8 |
| COc1nccnc1N1CCc2nc(COc3ccccc3)oc2C1=O [Compound B25] | 47 | > 10000 | 131.1 |
| O=C1c2oc(COc3ccccc3)nc2CCN1c1ccccc1 [Compound B13] | 76 | 1120 | 131.7 |
| O=C1c2oc(COc3ccccc3)nc2CCN1c1cccc(F)c1 [Compound B3] | 71 | 1320 | 132.5 |
| O=C1c2oc(COc3ccccc3)nc2CCN1c1cccc(F)c1F [Compound B4] | 75 | 646 | 137.2 |
| COc1nc(N2CCc3nc(COc4ccccc4)oc3C2=O)ncc1F [Compound B22, 5-(5-fluoro-4-methoxy-pyrimidin-2-yl)-2-phenoxymethyl-6,7-dihydro-5H-oxazolo[5,4-c]pyridin-4-one] | 65 | 1290 | 216.7 |
| O=C1c2oc(COc3ccccc3)nc2CCN1c1cccnc1 [Compound B9] | 38 | > 30200 | 188.7 |
| Cc1cccnc1N1CCc2nc(COc3ccccc3)oc2C1=O [Compound B17] | 43 | > 10000 | 138.8 |
| CN1CCc2nc(COc3ccccc3)oc2C1=O [Compound B33, 5-methyl-2-phenoxymethyl-6,7-dihydro-5H-oxazolo[5,4-c]pyridin-4-one] | 35 | > 30200 | – |
| Cc1cccc(N2CCc3nc(COc4ccccc4)oc3C2=O)n1 [Compound B14] | 53 | > 10000 | 116.3 |
| O=C1c2oc(COc3ccccc3)nc2CCN1c1cncc(F)c1 [Compound B12] | 27 | > 30200 | 133.1 |

Source: patent publication US20130252943A1, “BICYCLIC OXAZOLE LACTAMS AS ALLOSTERIC MODULATORS OF MGLUR5 RECEPTORS” (VANDERBILT UNIVERSITY, priority 2012, published 2013)
